According to PMC9961948, “Interaction of Amphipathic Peptide from Influenza Virus M1 Protein with Mitochondrial Cytochrome Oxidase” (International Journal of Molecular Sciences, 2023):
Read-outs that look alike come from different tables or passages of the source.

How the values were obtained:
[1] = target: T1, cytochrome c oxidase (CcO) purified from heart mitochondria (Bos taurus, UniProt P00396+P07471+P68530); assay: Cytochrome oxidase activity of solubilized mitochondrial CcO (oxygen uptake); type: biochemical
T1 construct: Cytochrome c oxidase was purified from the heart mitochondria of Bos taurus; from tissue; host or cells: bovine heart mitochondria

[2] = test system: CcO reconstituted into asolectin vesicles; assay: CcO activity in asolectin proteoliposomes; type: biochemical, Bos taurus; settings: peptide up to 150 μM
[3] = test system: cytochrome c oxidase (CcO), peroxidase activity; assay: Peroxidase partial activity of solubilized CcO (peroxidation of ferrocyanide); type: biochemical, Bos taurus; settings: 50 μM P4; 0.6 μM solubilized CcO, 0.2 mM ferrocyanide with equimolar ferricyanide, 4 mM H2O2
Method: The two-electron reduction of H2O2 to water refers to the peroxidase phase of the CcO catalytic cycle. As shown previously, this reaction can be carried out aerobically using a high-potential electron donor [51]. We followed this partial activity of CcO in the presence of a ferro/ferricyanide pair at E’ ≈ +420 mV when the oxidase reaction becomes negligible. Peroxidation of ferrocyanide by CcO was recorded spectrophotometrically (Figure 3).
Peroxidation of 0.2 mM ferrocyanide (against the background of equimolar ferricyanide) was monitored at 0.6 μM solubilized CcO. The reaction was triggered by the addition of 4 mM H2O2 (shown by the arrow). […] The initial jump upon H2O2 addition reflects spectral response in the γ-band of heme a3 upon oxoferryl intermediate formation.
Peroxidase partial activity of CcO was assayed in BM following peroxidation of ferrocyanide by the absorption difference at 420 nm vs. 500 nm references, using the spectrophotometer SLM Aminco DW-2000 (SLM Instruments, Urbana, IL, USA) in a dual-wavelength mode. In order to obtain a redox buffer with Em ≈ 420 mV, equal amounts of ferri- and ferrocyanide were mixed. No ferrocyanide oxidase activity was observed until the peroxidase reaction was initiated by the addition of H2O2. The reaction was carried out in a standard semi-micro cuvette (Hellma, Mullheim, Germany) with blackened side walls and a 10 mm light pathway.

[4] = Permeabilization of calcein-loaded asolectin liposomes (calcein release); settings: 5 μM peptide
[5] = target: T2, CcO in rat liver mitochondria (Rattus norvegicus, UniProt P00406+P05503); assay: CcO activity in the mitochondrial membrane (respiration of rat liver mitochondria); type: biochemical
T2 construct: Rat liver mitochondria were isolated by differential centrifugation; from tissue; host or cells: rat liver mitochondria
T2 sequence (P00406 whole entry, other chains not shown): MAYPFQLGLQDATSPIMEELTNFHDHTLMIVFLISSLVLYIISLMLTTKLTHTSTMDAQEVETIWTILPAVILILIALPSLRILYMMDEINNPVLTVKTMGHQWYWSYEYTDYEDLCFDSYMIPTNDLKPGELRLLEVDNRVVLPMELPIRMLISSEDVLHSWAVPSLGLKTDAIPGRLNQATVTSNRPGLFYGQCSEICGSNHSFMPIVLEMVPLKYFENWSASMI

Substance: Ac-RTKLWEMLVELGNMDKAVKLWRKLKR-NH2 [P4]
- final rate of the oxidase reaction, % of the initial ([1]; 20 μM P4 added in the course of the reaction, constant level 1.5 min later, solubilized CcO 20 nM): ≤ 15%
- Ki ([1]; solubilized bovine heart CcO 20 nM, oxygen uptake, Clark electrode, 25 °C, BM 50 mM Hepes/Tris pH 7.6, 50 mM KCl, 1 mM (0.05%) DM, 5 mM ascorbate, 0.1 mM TMPD, 10 μM cytochrome c, fit by Equation (1), read-out: Inhibition of CcO, Solubilized, Ki(app)): 0.0076 mM
- Ki ([1]; solubilized mitochondrial CcO, intercept of linear dependence of Ki(app) on [DM], read-out: true Ki (extrapolation of DM to zero)): 0.003 mM
- oxidase reaction rate of CcO in proteoliposomes upon addition of peptide [2]: does not change the reaction rate
- rate of peroxidase reaction (ferricyanide formation) upon addition of peptide [3]: did not change
- time to reach the 100% level of calcein release ([4]; 100% = after Triton X-100 0.1%): 3 min
- t1/2 of fluorescence increase (calcein release) ([4]; liposomes 0.1 mg lipid/mL, 20 mM MOPS/Tris pH 7.3, 0.2 mM EDTA, fluorescence 520 nm (excitation 490 nm)): ~ 12 s
- inhibitor concentration up to which the rate of the oxidase reaction remains almost unchanged [5]: ~ 10 μM
